Laboratory results reported in article PMC11923649, “Novel C-2 Aromatic Heterocycle-Substituted Triterpenoids Inhibit Hedgehog Signaling in GLI1 Overexpression Cancer Cells” (ACS Omega, 2025).
Where two headings read alike, the source gives them in different places.

How the values were obtained:
[1] = test system: CCRF-CEM; test: MTS cytotoxicity assay, 72 h, CCRF-CEM; format: cell-based; conditions: Table 1; for IC50: Homo sapiens, CCRF-CEM, 72 h, MTS; for SI (selectivity index): IC50 of CCRF-CEM line vs average of both fibroblasts (BJ and MRC-5)
Outline: (§1)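 Treatment ran 72 h at 37 °C under 5% CO2, starting the day after plating, across 50–0.0975 μmol/L (dilution factor 2). Metabolic conversion of MTS was read at 490 nm to obtain IC50.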

[2] = test system: Hh signaling (Gli Reporter-NIH3T3, Gli-responsive FLuc); test: Gli Reporter-NIH3T3 luciferase assay, mSHH or SAG induced; format: cell-based; conditions: mean ± SD, n=3
Description: To further validate the effect of new triterpenes on Hh signaling, we used the commercial reporter cell line NIH3T3–Gli reporter, which expresses the firefly luciferase (FLuc) gene under the control of a Gli-responsive element.
Gli Reporter-NIH3T3 (BPS Bioscience) cells were cultured in DMEM medium supplemented with 10% iron-supplemented bovine calf serum and under the selection pressure of Geneticin (500 μg/mL) at 37 °C in an atmosphere of 5% CO2 with 95% humidity. The Gli Reporter-NIH3T3 cell line expresses the firefly luciferase (FLuc) gene under the control of a Gli responsive element stably integrated into NIH3T3 cells. The cell line was validated through response to mSHH stimulation and the effect of commercially available Hh inhibitors (Cyclopamine). The assay was performed in 384-well white opaque microplates. Gli Reporter-NIH3T3 cells were transferred to Opti-MEM medium with a reduced content of 0.5% (v/v) iron-supplemented bovine calf serum, supplemented with a 1% solution of nonessential amino acids, 1 mmol/L sodium pyruvate, and 10 mmol/L HEPES, and seeded on the panel in a volume of 25 μL of cell suspension per well at a concentration of 2.5 × 10^5/mL. The following day, compounds were transferred at the concentration range of 16–0.25 μmol/L (dilution factor 2) and incubated for 2 h. Then, the mSHH ligand at concentrations of 0.25 and 0.5 μg/mL and SAG (a synthetic SMO agonist) at concentrations of 2 and 4 nmol/L were added to the wells. Controls representing DMSO-treated cells were also included at a concentration of 0.1% (v/v). Cells were incubated for another 24–30 h and then kept for 30 min at room temperature, and finally, 25 μL of Britelite plus reagent was added to each well. Plates were placed on a shaker to achieve complete cell lysis, and luminescence was measured after 3 min on an EnVision plate reader.

[3] = test system: MRC-5 lung fibroblasts; test: MTS cytotoxicity assay, 72 h, MRC-5 fibroblasts; format: cell-based, human; conditions: Homo sapiens, MRC5, 72 h, normal fibroblasts
Outline: as §1

[4] = SAG (SMO agonist) 2 nM after 2 h preincubation, read-out: IC50 SAG stimulation 2 nM
[5] = SAG (SMO agonist) 4 nM after 2 h preincubation, read-out: IC50 SAG stimulation 4 nM
[6] = mSHH 0.25 μg/mL after 2 h preincubation, read-out: IC50 mSHH stimulation 0.25 (μg/mL)
[7] = mSHH 0.5 μg/mL after 2 h preincubation, read-out: IC50 mSHH stimulation 0.5 (μg/mL)

Structure (SMILES) | IC50 [1] [µM] | SI (selectivity index) [1] | IC50 [2, 4] [µM] | IC50 [2, 5] [µM] | IC50 [2, 6] [µM] | IC50 [2, 7] [µM] | IC50 ([3]; Table 1) [µM] | IC50 ([3]; full Table S1) [µM]
C=C(C)[C@@H]1CC[C@]2(C(=O)O)CC[C@]3(C)C(CCC4[C@@]5(C)C=C(c6ccoc6)C(=O)C(C)(C)C5CC[C@]43C)C12 (stereo partly shown) [Compound 11b, 2-(Furan-3-yl)-3-oxolupa-1,20(29)-dien-28-oic acid] | 6 | 5 | 3.5 ± 0.2 | 4.1 ± 0.4 | 3.2 ± 0.3 | 2.4 ± 0.3 | 24 | 23.9
C=C(C)[C@@H]1CC[C@]2(C(=O)O)CC[C@]3(C)C(CCC4[C@@]5(C)C=C(c6ccco6)C(=O)C(C)(C)C5CC[C@]43C)C12 (stereo partly shown) [Compound 11a, 2-(Furan-2-yl)-3-oxolupa-1,20(29)-dien-28-oic acid] | 8.7 | 3.8 | 4.5 ± 0.6 | 3.8 ± 0.4 | 3.5 ± 0.5 | 1.9 ± 0.2 | 27 | 26.8
